In general, IC50 refers to the concentration needed to halve the response being measured.

For series [1], the system named is A549 cells. Nature of the series: xCelligence real-time cell analysis (RTCA) cytotoxicity assay, A549. It is filed as cell-based, human. On the procedure: (§1) The A549 and HeLa cell lines were cultured directly in DMEM (Dulbecco's Modified Eagle Medium), and then supplemented with 10% fetal bovine serum (FBS) and 1% streptomycin/penicillin. Then, the cancer cell samples were kept in a humidified incubator at 37° C. with 5% CO2.
(§2) The cytotoxicity of complexes was measured using xCelligence RTCA DP system (ACEA Biosciences, San Diego, Calif., USA). Briefly, the instrument was positioned in a humidified incubator at 37° C. with 5% CO2. The cytotoxicity experiments were conducted using modified 16-well plate (E-plate) with gold-microelectrodes attached at the base of the wells for the impedance-based attachment detection, cell distribution, and proliferation. A 50 μL of cell-free growth DMEM with 10% FBS was added to the wells. Then, the system was connected to measure the background impedance for each well for 30 min. A549 and HeLa cells were harvested using 0.05% Trypsin-EDTA (ethylenediaminetetraacetic acid), and then counted using LUNA automated cell counter (Logos Biosystem, Seoul, South Korea). 50 μL of the cell suspension was then added directly to each well containing 50 μL of cell-free growth DMEM with 10% FBS—Final to reach cell density of 5×10^3. The plates were left at room temperature for about 30 minutes and then inserted to xCelligence RTCA DP device. The xCelligence RTCA system software v.2.0 automatically monitored the impedance value of individual well. These values are expressed as CI (Cell Index) every 15 minutes. […] Then, cells were real time-monitored for 72 hours. All tested compounds were dissolved in DMSO, while cisplatin in normal saline solution. The final concentration of DMSO was less than 0.1% in each well. For negative control, 0.1% DMSO solution was used. Then IC50 values for all compounds at 24 hours and 72 hours were calculated using RTCA software v.2.0.
(§3) For all impedance profiles, the sigmoidal dose-response curves (FIGS. 2A-D) were obtained, and IC50 values were calculated (see Table 4). The calculations were based upon the CI, which is a relative and dimensionless value representing the impedance change divided by the background value, and thus reflects the overall number of cells and the quality of their attachment [D. Kho, C. MacDonald, R. Johnson, C. P. Unsworth, S. J. O'Carroll, E. du Mez, C. E. Angel, E. S. Graham. […] Biosensors 5 (2015) 199-222, incorporated herein by reference in its entirety]. The CI can change as a function of time, resulting in time-dependent and dose-dependent impedance profiles during an experiment [D. Kho, C. MacDonald, R. Johnson, C. P. Unsworth, S. J. O'Carroll, E. du Mez, C. E. Angel, E. S. Graham. […] Biosensors 5 (2015) 199-222, incorporated herein by reference in its entirety].

The subject of series [2] is HeLa cells. Nature of the series: xCelligence real-time cell analysis (RTCA) cytotoxicity assay, HeLa. It counts as cell-based, human. The procedure:
as §1, §2, §3

The subject of series [3] is A549 cells. Nature of the series: Lactate dehydrogenase (LDH) release assay, A549. It counts as cell-based, human. The conditions noted are these: 72 hours. On the procedure: (§4) The release of lactate dehydrogenase (LDH) of A549 and HeLa cells in response to the cytotoxic effect of complexes 1 and 2 was measured using the LDH cytotoxic kit protocol (Dojindo, japan). The A549 and HeLa cells were plated into 96-well plate at 5×10^5 density for overnight. The cells were treated with complexes (1 and 2) at concentrations of IC25 (0.9 μM), IC50 (1.8 […]), and IC100 (3.6 μM) in triplicate for about 72 hours. In the day of reading, 10 μL of the Lysis Buffer was added to each well of the high control. The plate was incubated at 37° C. in CO2 incubator for 30 minutes. Then, 100 μL of the Working Solution was added to each well and incubated at room temperature for 30 minutes. Then, 50 μL of the Stop Solution was added to each well before measuring the absorbance at 490 nm using Mithras 943 micro-plate reader (Berthold Tech, Wildbad, Germany). The high control (DMSO+Cells suspension+lysis buffer) and low control (DMSO+cell suspension) were used to determine the percentage of fold changes in LDH according to the following equation (I). % in LDH changes=(Low control−Test)/(Low control−High control)×100 (I)
(§5) The release of lactate dehydrogenase (LDH) directly into the culture medium is an indication of loss of membrane integrity of a cell due to necrosis or apoptosis. Therefore, the LDH activity in the medium can be used as an indicator for cell membrane integrity, and thus for measuring cytotoxicity. […] The cytotoxic effect of complexes 1 and 2 was evaluated by the release of lactate dehydrogenase (LDH) on treated cells (A549 and HeLa). The cells were treated with the complexes at concentrations of 0.9 μM, 1.8 μM, and 3.6 μM, respectively, for 72 hours.

The subject of series [4] is HeLa cells. Nature of the series: Lactate dehydrogenase (LDH) release assay, HeLa. It is filed as cell-based, human. The note with it: 72 hours. On the procedure:
as §4, §5

For series [5], the system named is HeLa cells. Nature of the series: Wound healing assay (cell migration). It counts as cell-based, human. The note with it: for cells migrated, % of the cell-free area (scratch closure): DMSO control approximately 73%. The procedure:
The Culture-Insert 2 Well (ibidi Gmbh, Germany) was placed into micro-plate 24. 70 μL of 5×10^5 of HeLa cells was seeded into the culture-insert. The seeded cells were incubated for 24 hours under a specific condition (37° C., 5% CO2) to form monolayer cells. After 24 hours of the incubation, the culture-inserts were removed and the cells were gently washed with PBS to remove cell debris and detached cells. The cells were then treated with the cell culture mediums containing complex 1 at specific concentrations (1, 3, 10, 30 μM) and containing 0.1% DMSO as control. All assays were conducted in duplicates. In order to analyze the migration capacity, images of the cells were taken at 0 hours, 6 hours, and 12 hours using Optika microscope, Italy. The gap closure was determined using a web-based quantitative image solution (http://www.metavilabs.com/metavi2/index.html)
Cell migration is essential in the development and maintenance of multicellular organism. It plays a central role in tissue formation during embryonic development, organ formation, immune responses, and most importantly (as in this experiment) in wound healing. Wound healing assay is a standard in vitro technique to determine collective cell migration in two dimensions. In this assay, an insert is used to create a cell-free gap in confluent monolayer cells. The wound healing assay is initiated by removing the insert. The cell-free gap is then exposed to the cell culture medium to induce the cells to migrate into the gap until new cell-to-cell contacts are established.
The wound healing images were recorded at three different time intervals using microscope to assess the directional collective migration of the cells. The rate of wound healing was determined by measuring the change in the gap size of the cell-free area after treatment with various concentrations of complex 1 recorded over specific time-intervals (e.g., 0 hour, 6 hours, and 12 hours). The gap was measured for each frame in the wound healing and plotted as a function of time to determine the cell migration rate. The effect of varying concentration of complex 1 (1, […], 10, 30 μM) and 0.1% of DMSO (control cells) against HeLa cell migration rate was studied. […] Meanwhile, the cells treated with four different concentrations of complex 1 (1, 3, 10, 30 μM) migrated approximately 57%, 54%, 49%, and 28%, respectively. […] Further molecular studies are required to understand the mechanism behind the inhibition of cell migration.

Another series relates to mice. The experiment in a line: Acute kidney toxicity study. From the text:
The mice were separated into three groups ((I), (II), and (III)) with four animals per each cage. Group (I) was served as normal control group, which received only vehicle (0.1 volume % DMSO). […] Six hours prior to the experiment, no food and water were given. […] On the day three, the animals were sacrificed by the overdose of xylazine and ketamine anesthesia. Blood samples were collected for Blood Urea Nitrogen (BUN) and serum creatinine (CRE2) measurements. All mice were allowed one week to acclimatize prior to the experiments (five animals per cage), under standard environmental conditions (12 h light-dark cycle). The animal studies were performed according to the king Saud University ethical committee.
Kidney biochemical markers, BUN and CRE2, were used for nephrotoxicity study.

Setting [6] is: equimolar single doses of 25 mg/kg, 72 hours.

Bounds are passed on as bounds.

For `N.N.[Cl][Pt][Cl]` [Cisplatin, reference compound], the IC50 in the series on A549 cells [1] (A549, 24 hours) is > 30 µM; with A549 cells [1] (A549, 72 hours), > 30 µM; with HeLa cells [2] (24 hours), > 30 µM; in the series with HeLa cells [2] (72 hours) it was > 30 µM.

In the case of `C1=CC2C3C=CC(C3)C2C1.CN(C)C(=S)[S][Pt+].F[P-](F)(F)(F)(F)F` (centres unmarked) [Complex 1], the half-inhibitory concentration (IC50) stood at 2.92 µM in the series on A549 cells [1] (A549, 24 hours); 1.74 µM in the series with A549 cells [1] (A549, 72 hours); 1.72 µM with HeLa cells [2] (24 hours); 1.87 µM with HeLa cells [2] (72 hours). The “Percent (%) release of LDH” value in the series with A549 cells [3] (A549, 0.9 μM) was 31.93 ± 0.01%; in the series with A549 cells [3] (A549, 1.8 μM), 43.33 ± 0.02%; in the series with A549 cells [3] (A549, 3.6 μM) it was 47.00 ± 0.01%; in the series with HeLa cells [4] (0.9 μM), 60.16 ± 0.02%; in the series with HeLa cells [4] (1.8 μM), 73.07 ± 0.03%; in the series with HeLa cells [4] (3.6 μM), 95.57 ± 0.02%. Moreover, the “cells migrated, % of the cell-free area (scratch closure)” value in the series on HeLa cells [5] (1 μM) was “approximately 57%”; in the series on HeLa cells [5] (3 μM) it was ~54%; with HeLa cells [5] (10 μM), ~49%; with HeLa cells [5] (30 μM), ~28%. The “effect on cell migration rate” value in the series on HeLa cells [5] (1-30 μM, 0-12 h) is recorded as “slowed down the cell migration rate in a concentration-dependent manner”. In the series on mice (72 h after single dose, 25 mg/kg cisplatin or equimolar complex 1, CTR 6.7 ± 0.1), the “Blood Urea Nitrogen (BUN) level in Plasma” value came out at 6.06 ± 0.08. Moreover, the “Creatinine (CRE2) level in Plasma” value in the series with mice (72 h after single dose, 25 mg/kg cisplatin or equimolar complex 1, CTR 17.4 ± 0.58) is given as 15.8 ± 0.45. In addition, the “BUN and CRE2 levels in response to the complex (in words)” value in the series with mice (72 hours) is “control and normal”. Also, in the series with mice (setting [6]), the “physical or abnormal changes” value is “No physical or abnormal changes”. In addition, the “survival of the treatment period” value in the series with mice (setting [6]) was “all animals survived”. Moreover, the “acute kidney toxicity compared to cisplatin” value in the series with mice (nephrotoxicity tests) is given as “less toxic compared to cisplatin”.

As to `C1=CC2C3C=CC(C3)C2C1.CCN(CC)C(=S)[S][Pt+].F[P-](F)(F)(F)(F)F` (centres unmarked) [Complex 2], the half-inhibitory concentration (IC50) came to 7.61 µM in the series with A549 cells [1] (A549, 24 hours); 3.37 µM in the series with A549 cells [1] (A549, 72 hours); 6.1 µM with HeLa cells [2] (24 hours); 3.52 µM in the series on HeLa cells [2] (72 hours). In addition, the “Percent (%) release of LDH” value is recorded as 32.18 ± 0.004% in the series with A549 cells [3] (A549, 0.9 μM); 41.05 ± 0.01% in the series on A549 cells [3] (A549, 1.8 μM); 44.85 ± 0.01% in the series with A549 cells [3] (A549, 3.6 μM); 45.52 ± 0.001% with HeLa cells [4] (0.9 μM); 68.19 ± 0.04% in the series with HeLa cells [4] (1.8 μM); 94.13 ± 0.05% in the series with HeLa cells [4] (3.6 μM).

For the molecule `C1=CC2C3C=CC(C3)C2C1.F[P-](F)(F)(F)(F)F.S=C([S][Pt+])N(Cc1ccccc1)Cc1ccccc1` [Complex 3], the “change in cytotoxicity with longer exposure time” value is recorded as “a decrease in cytotoxicity was observed with longer exposure time” with A549 cells [1] (A549, 24 vs 72 hours) and “a decrease in cytotoxicity was observed with longer exposure time” in the series with HeLa cells [2] (24 vs 72 hours). The concentration for half-maximal inhibition (IC50) in the series on A549 cells [1] (A549, 24 hours) came out at 3.31 µM; in the series on A549 cells [1] (A549, 72 hours), 7.83 µM; with HeLa cells [2] (24 hours) it was 3.18 µM; in the series with HeLa cells [2] (72 hours) it was 11.4 µM.

These data come from US11117912B1, “Platinum(II) complexes containing dicyclopentadiene and dithiocarbamate as anticancer agents” (King Fahd University of Petroleum and Minerals, priority 2020, dated 2021).
